Values after ≈ are worked out from the molar mass of the structure shown.

One series can be described thus: physchem. The method, then: (§1) The experimental methods used for these determinations are described below.
The mixtures were placed in an ultrasonic bath for 10 min and then rotated on a mechanical spindle for 24 h and filtered. After rotation for 1 h the pH of the phosphate buffer mixtures was adjusted to 7.0. An aliquot of the filtrates was diluted with water or acetonitrile and analyzed by HPLC.

A short description of series [1]: Apparent partition coefficient (P) between octanol and pH 7.4 aqueous buffer at 21° C. The conditions noted are these: octanol / phosphate buffer. How it is done:
as §1
The concentration of the compounds in the aqueous phase before and after partitioning was determined by HPLC analysis, and the partition coefficients determined.

For series [2] the following is noted: pH 7.
The nature of a further series: in vitro. The conditions noted are these: human.
Series [3] in a line: In vitro skin permeation (diffusion) study, open Franz diffusion cells, whole abdominal human skin. The conditions noted are these: for Flux, IPM: steady state, IPM solution not saturated, human skin.
[4] abbreviates: isopropyl myristate, organic solvent or mixture.
[5] abbreviates: phosphate buffer, pH 7, aqueous buffer.

Regarding `CCCCCC(=O)Oc1ccc2c3c1O[C@H]1[C@@H](O)C=C[C@H]4[C@@H](C2)N(C)CC[C@@]341` [3-Hexanoyl-morphine, 3-hexanoyl morphine], the solubility at 24 h in the series “physchem” (setting [4]) was above 150 mg/mL; in the series “physchem” (setting [5]), 2.6 mg/mL (≈ 6.78 mM). Besides, the logD in series [1] was 2.04. Moreover, the “Flux, Buffer” value in series [2] is 25.3 ± 4.2 μg/cm^2 /h. The Papp was above 0.0667 ×10⁻⁶ cm/s in “in vitro” and 3.61 ×10⁻⁶ cm/s in “in vitro” (pH 7). In addition, in series [3] (125 mg/ml), the “Flux, IPM” value came to 35.6 ± 12.0 μg/cm^2 /h.

On to `CCCCC(=O)Oc1ccc2c3c1O[C@H]1[C@@H](O)C=C[C@H]4[C@@H](C2)N(C)CC[C@@]341` [3-Valeryl-morphine], for which the “Flux, IPM” value in series [3] (200 mg/ml) came out at 16.5 ± 2.7 μg/cm^2 /h.

With `CCC(=O)Oc1ccc2c3c1O[C@H]1[C@@H](OC(=O)CC)C=C[C@H]4[C@@H](C2)N(C)CC[C@@]341` [3,6-Dipropionyl-morphine, 3,6-dipropionyl morphine], the solubility at 24 h worked out at 41 mg/mL (≈ 103 mM) in the series “physchem” (setting [4]) and 3.6 mg/mL (≈ 9.06 mM) in “physchem” (setting [5]). Moreover, the logD in series [1] came out at 1.66. The “Flux, Buffer” value in series [2] is listed as 2.5 ± 0.5 μg/cm^2 /h. In “in vitro” (pH 7), this compound gave a Papp of 0.278 ×10⁻⁶ cm/s. Besides, the “Amount penetrated present in the receptor phase as the 6-monoester” value in series [3] (receptor phase composition after human skin permeation) was around 50%.

Turning to 3-Butoxy-morphlne, the “Flux, IPM” value in series [3] (200 mg/ml) was found to be 8.3 ± 2.2 μg/cm^2 /h.

In the case of `CC(C)C(=O)Oc1ccc2c3c1O[C@H]1[C@@H](OC(=O)C(C)C)C=C[C@H]4[C@@H](C2)N(C)CC[C@@]341` [3,6-Diisobutyryl-morphine, 3,6-diisobutyryl morphine], the results for the solubility at 24 h in the series “physchem” (setting [4]) and in the series “physchem” (setting [5]) were 80 mg/mL (≈ 188 mM) and 0.6 mg/mL (≈ 1.41 mM), respectively. For the same compound, the logD in series [1] was found to be 2.6.

Regarding `CCCCCC(=O)Oc1ccc2c3c1O[C@H]1[C@@H](OC(=O)CCCCC)C=C[C@H]4[C@@H](C2)N(C)CC[C@@]341` [3,6-Dihexanoyl-morphine, 3,6-dihexanoyl morphine], the solubility at 24 h in “physchem” (setting [4]) was above 200 mg/mL; in “physchem” (setting [5]) it was 0.02 mg/mL (≈ 0.0415 mM). For the same compound, the logD in series [1] is above 4. Moreover, in series [2], the “Flux, Buffer” value is recorded as 1.7 ± 0.2 μg/cm^2 /h. The apparent permeability (Papp) in the series “in vitro” is above 0.0444 ×10⁻⁶ cm/s; in “in vitro” (pH 7), 38.9 ×10⁻⁶ cm/s. Moreover, the “Flux, IPM” value in series [3] (200 mg/ml) is reported as 11.7 ± 1.2 μg/cm^2 /h.

For the compound `CC(C)C(=O)Oc1ccc2c3c1O[C@H]1[C@@H](O)C=C[C@H]4[C@@H](C2)N(C)CC[C@@]341` [3-Isobutyryl-morphine], the “Flux, IPM” value in series [3] (200 mg/ml) was 27.0 ± 3.3 μg/cm^2 /h.

As for `CC(=O)Oc1ccc2c3c1O[C@H]1[C@@H](O)C=C[C@H]4[C@@H](C2)N(C)CC[C@@]341` [3-Acetyl-morphine], the “Flux, IPM” value in series [3] (200 mg/ml) came out at 11.4 ± 1.8 μg/cm^2 /h.

For the compound `CCC(=O)Oc1ccc2c3c1O[C@H]1[C@@H](O)C=C[C@H]4[C@@H](C2)N(C)CC[C@@]341` [3-Propionyl-morphine, 3-propionyl morphine], the solubility at 24 h in the series “physchem” (setting [4]) is 79 mg/mL (≈ 231 mM); in the series “physchem” (setting [5]), 21 mg/mL (≈ 61.5 mM). In addition, the logD in series [1] came out at 0.66.

The values are drawn from patent US5908846A (priority 1993, dated 1999).
